Reference: patent US20210269434A1, “TRICYCLIC COMPOUNDS AS INHIBITORS OF KRAS” (Incyte Corporation, priority 2020, published 2021)

Legend:
KRAS G12C = KRAS G12C (Homo sapiens, UniProt P01116, G12C); test: GDP-GTP exchange assay (KRAS_G12C exchange); assay type: biochemical; conditions: bodipy-GDP loaded KRAS G12C 2.5 nM, SOS1 150 nM, GppNHp; 2 hours pre-incubation, 2 hours reaction; read-out: G12C_exchange
Experimental: Example A. GDP-GTP Exchange Assay
The inhibitor potency of the exemplified compounds was determined in a fluorescence based guanine nucleotide exchange assay, which measures the exchange of bodipy-GDP (fluorescently labeled GDP) for GppNHp (Non-hydrolyzable GTP analog) to generate the active state of KRAS in the presence of SOS1 (guanine nucleotide exchange factor). Inhibitors were serially diluted in DMSO and a volume of 0.1 μL was transferred to the wells of a black low volume 384-well plate. 5 μL/well volume of bodipy-loaded KRAS G12C diluted to 5 nM in assay buffer (25 mM Hepes pH 7.5, 50 mM NaCl, 10 mM MgCl2 and 0.01% Brij-35) was added to the plate and pre-incubated with inhibitor for 2 hours at ambient temperature. Appropriate controls (enzyme with no inhibitor or with a G12C inhibitor (AMG-510)) were included on the plate. The exchange was initiated by the addition of a 5 μL/well volume containing 1 mM GppNHp and 300 nM SOS1 in assay buffer. The 10 μL/well reaction concentration of the bodipy-loaded KRAS G12C, GppNHp, and SOS1 were 2.5 nM, 500 uM, and 150 nM, respectively. The reaction plates were incubated at ambient temperature for 2 hours, a time estimated for complete GDP-GTP exchange in the absence of inhibitor. For the KRAS G12D and G12V mutants, similar guanine nucleotide exchange assays were used with 2.5 nM as final concentration for the bodipy loaded KRAS proteins and with 4 hours and 3 hours incubation after adding GppNHp-SOS1 mixture for G12D and G12V respectively. A cyclic peptide described to selectively bind G12D mutant (Sakamoto et al., BBRC 484.3 (2017), 605-611) or internal compounds with confirmed binding were used as positive controls in the assay plates. Fluorescence intensities were measured on a PheraStar plate reader instrument (BMG Labtech) with excitation at 485 nm and emission at 520 nm.
Either GraphPad prism or XLfit was used to analyze the data. The IC50 values were derived by fitting the data to a four parameter logistic equation producing a sigmoidal dose-response curve with a variable Hill coefficient. Prism equation: Y=Bottom+(Top−Bottom)/(1+10^((Log lC50−X)*Hill slope)); XLfit equation: Y=(A+((B−A)/(1+((X/C)^D)))) where X is the logarithm of inhibitor concentration and Y is the response.

[1] = tested on: MIA PaCa-2 (KRAS G12C) cells; test: Cellular pERK HTRF assay (KRAS_G12C pERK); assay type: cell-based, human; conditions: Homo sapiens, MIA PaCa-2, 4 hours incubation, read-out: G12C_pERK
Experimental: Example C: Cellular pERK HTRF Assay
MIA PaCa-2 (KRAS G12C; ATCC® CRL-1420), A427 (KRAS G12D; ATCC® HTB53), HPAF-II (KRAS G12D; ATCC® CRL-1997) and NCI-H838 (KRAS WT; ATCC® CRL-5844) cells are purchased from ATCC and maintained in RPMI 1640 media supplemented with 10% FBS (Gibco/Life Technologies). The cells are plated at 5000 cells per well (8 uL) into Greiner 384-well low volume, flat-bottom, tissue culture treated white plates and incubated overnight at 37° C., 5% CO2. The next morning, test compound stock solutions are diluted in media at 3× the final concentration, and 4 uL are added to the cells. The plate is mixed by gentle rotation for 30 seconds (250 rpm) at room temperature. The cells are incubated with the KRAS G12C and G12D compounds for 4 hours or 2 hours respectively at 37° C., 5% CO2.
4 uL of 4× lysis buffer with blocking reagent (1:25) (Cisbio) are added to each well and plates are rotated gently (300 rpm) for 30 minutes at room temperature. 4 uL per well of Cisbio anti Phospho-ERK 1/2 d2 is mixed with anti Phospho-ERK 1/2 Cryptate (1:1) are added to each well, mixed by rotation and incubated overnight in the dark at room temperature. Plates are read on the Pherastar plate reader at 665 nm and 620 nm wavelengths. IC50 determination is performed by fitting the curve of inhibitor percent inhibition versus the log of the inhibitor concentration using the GraphPad Prism 7 software.

KRAS G12C, sequence (P01116 1-188 isoform P01116-2 G12C): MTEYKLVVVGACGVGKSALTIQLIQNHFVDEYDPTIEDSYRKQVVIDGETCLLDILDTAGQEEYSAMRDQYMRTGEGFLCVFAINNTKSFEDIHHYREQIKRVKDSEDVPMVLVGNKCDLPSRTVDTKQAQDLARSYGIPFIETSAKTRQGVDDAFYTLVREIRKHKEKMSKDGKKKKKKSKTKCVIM

Compound: COC/C=C/C(=O)N1CC[C@H](n2nnc3c(OC[C@@H]4CCCN4C)nc4c(F)c(-c5c(C)c(Cl)cc6[nH]ncc56)c(Cl)cc4c32)C[C@H]1CC#N (single isomer, unassigned) [Example 191a]
- IC50 (KRAS G12C): ≤ 100 nM
- IC50 [1]: ≤ 100 nM

Compound: C=CC(=O)N1CC[C@H](n2nnc3c(N4CC(C)(N(C)C)C4)nc4c(F)c(-c5c(C)c(Cl)cc6[nH]ncc56)c(C)cc4c32)C[C@H]1CC#N (single isomer, unassigned) [Example 193a]
- IC50 (KRAS G12C): ≤ 100 nM
- IC50 [1]: ≤ 100 nM

Compound: CC#CC(=O)N1CC[C@H](n2nnc3c(N4CC(C)(N(C)C)C4)nc4c(F)c(-c5c(C)c(Cl)cc6[nH]ncc56)c(C)cc4c32)C[C@H]1CC#N (single isomer, unassigned) [Example 194a]
- IC50 (KRAS G12C): ≤ 100 nM
- IC50 [1]: ≤ 100 nM

Compound: C=CC(=O)N1CC[C@H](n2nnc3c(N4CC(C)(N(C)C)C4)nc4c(F)c(-c5c(C)c(C)cc6[nH]ncc56)c(C)cc4c32)C[C@H]1CC#N (single isomer, unassigned) [Example 198a]
- IC50 (KRAS G12C): ≤ 100 nM
- IC50 [1]: ≤ 100 nM

Compound: C=CC(=O)N1CC[C@H](n2nnc3c(N4CC(C)(N(C)C)C4)nc4c(F)c(-c5c(C)ccc6[nH]ncc56)c(C)cc4c32)C[C@H]1CC#N (single isomer, unassigned) [Example 200a]
- IC50 (KRAS G12C): ≤ 100 nM
- IC50 [1]: ≤ 100 nM

Compound: CC#CC(=O)N1CC[C@H](n2nnc3c(OC[C@@H]4CCCN4C)nc4c(F)c(-c5cccnc5C(F)(F)F)c(C)cc4c32)C[C@H]1CC#N (single isomer, unassigned) [Example 205a]
- IC50 (KRAS G12C): ≤ 100 nM
- IC50 [1]: ≤ 100 nM

Compound: C=CC(=O)N1CCC(n2cnc3c(N4CC(C)(N(C)C)C4)nc4c(F)c(-c5cccc6cccc(Cl)c56)c(Cl)cc4c32)C[C@H]1CC#N (single isomer, unassigned) [Example 212a]
- IC50 (KRAS G12C): ≤ 100 nM
- IC50 [1]: ≤ 100 nM

Compound: CC#CC(=O)N1CCC(n2cnc3c(N4CC(C)(N(C)C)C4)nc4c(F)c(-c5cccc6cccc(Cl)c56)c(Cl)cc4c32)C[C@H]1CC#N (single isomer, unassigned) [Example 213b]
- IC50 (KRAS G12C): ≤ 100 nM
- IC50 [1]: ≤ 100 nM

Compound: C=CC(=O)N1CCC(n2cnc3c(N4CC(N(C)CC)C4)nc4c(F)c(-c5cccc6cccc(Cl)c56)c(Cl)cc4c32)C[C@H]1CC#N (single isomer, unassigned) [Example 214b]
- IC50 (KRAS G12C): ≤ 100 nM
- IC50 [1]: ≤ 100 nM

Compound: C=CC(=O)N1CCC(n2cnc3c(OC[C@@H]4CCCN4C)nc4c(F)c(-c5cccc6cccc(Cl)c56)c(Cl)cc4c32)C[C@H]1CC#N (single isomer, unassigned) [Example 215b]
- IC50 (KRAS G12C): ≤ 100 nM
- IC50 [1]: ≤ 100 nM

Compound: C=CC(=O)N1CCC(n2nnc3c(N4CC(C)(N(C)C)C4)nc4c(F)c(-c5cccc6cccc(Cl)c56)c(Cl)cc4c32)C[C@H]1CC#N (single isomer, unassigned) [Example 216a]
- IC50 (KRAS G12C): ≤ 100 nM
- IC50 [1]: ≤ 100 nM

Compound: CC#CC(=O)N1CCC(n2nnc3c(N4CC(C)(N(C)C)C4)nc4c(F)c(-c5cccc6cccc(Cl)c56)c(Cl)cc4c32)C[C@H]1CC#N (single isomer, unassigned) [Example 218a]
- IC50 (KRAS G12C): ≤ 100 nM
- IC50 [1]: ≤ 100 nM

Compound: C=CC(=O)N1CCC(n2nnc3c(N4CC(N(C)CC)C4)nc4c(F)c(-c5cccc6cccc(Cl)c56)c(Cl)cc4c32)C[C@H]1CC#N (single isomer, unassigned) [Example 219a]
- IC50 (KRAS G12C): ≤ 100 nM
- IC50 [1]: ≤ 100 nM

Compound: C=CC(=O)N1CCC(n2nnc3c(N4CC(C)(N(C)C)C4)nc4c(F)c(-c5cccc6cccc(C#N)c56)c(Cl)cc4c32)C[C@H]1CC#N (single isomer, unassigned) [Example 220a]
- IC50 (KRAS G12C): ≤ 100 nM
- IC50 [1]: ≤ 100 nM

Compound: C=CC(=O)N1CCC(n2cnc3c(N4CC(C)(N(C)C)C4)nc4c(F)c(-c5cccc6cccc(Cl)c56)c(C)cc4c32)C[C@H]1CC#N (single isomer, unassigned) [Example 221a]
- IC50 (KRAS G12C): ≤ 100 nM
- IC50 [1]: ≤ 100 nM

Compound: C=CC(=O)N1CCC(n2cnc3c(N4CC(N(C)CC)C4)nc4c(F)c(-c5cccc6cccc(Cl)c56)c(C)cc4c32)C[C@H]1CC#N (single isomer, unassigned) [Example 223a]
- IC50 (KRAS G12C): ≤ 100 nM
- IC50 [1]: ≤ 100 nM

Compound: CC#CC(=O)N1CCC(n2cnc3c(N4CC(N(C)CC)C4)nc4c(F)c(-c5cccc6cccc(Cl)c56)c(C)cc4c32)C[C@H]1CC#N (single isomer, unassigned) [Example 224a]
- IC50 (KRAS G12C): ≤ 100 nM
- IC50 [1]: ≤ 100 nM

Compound: CN(C)C/C=C/C(=O)N1CC[C@H](n2cnc3c(N4CC(N(C)C)C4)nc4c(F)c(-c5ccc(F)c6cccnc56)c(C(F)(F)F)cc4c32)C[C@H]1CC#N (single isomer, unassigned) [Example 230a]
- IC50 (KRAS G12C): ≤ 100 nM
- IC50 [1]: ≤ 100 nM

Compound: CC#CC(=O)N1CC[C@H](n2nnc3c(N4CC(N(C)C)C4)nc4c(F)c(-c5c(C)c(Cl)cc6[nH]ncc56)c(CCC#N)cc4c32)C[C@H]1CC#N (single isomer, unassigned) [Example 231a]
- IC50 (KRAS G12C): ≤ 100 nM
- IC50 [1]: ≤ 100 nM

Compound: C=CC(=O)N1CC[C@H](n2nnc3c(N4CC(C)(N(C)C)C4)nc4c(F)c(-c5ccc(F)c6cccnc56)c(C(F)(F)F)cc4c32)C[C@H]1CC#N (single isomer, unassigned) [Example 233a]
- IC50 (KRAS G12C): ≤ 100 nM
- IC50 [1]: ≤ 100 nM

Compound: C=CC(=O)N1CC[C@H](n2nnc3c(N4CC(C)(N(C)C)C4)nc4c(F)c(-c5cccc(C)c5Cl)c(C(F)(F)F)cc4c32)C[C@H]1CC#N (single isomer, unassigned) [Example 235a]
- IC50 (KRAS G12C): ≤ 100 nM
- IC50 [1]: ≤ 100 nM

Compound: C=CC(=O)N1CC[C@H](n2nnc3c(N4CC(C)(N(C)C)C4)nc4c(F)c(-c5cccc(Cl)c5C)c(C(F)(F)F)cc4c32)C[C@H]1CC#N (single isomer, unassigned) [Example 238a]
- IC50 (KRAS G12C): ≤ 100 nM
- IC50 [1]: ≤ 100 nM

Compound: CC#CC(=O)N1CC[C@H](n2nnc3c(OC[C@@H]4CCCN4C)nc4c(F)c(-c5cccc(C)c5Cl)c(CCC#N)cc4c32)C[C@H]1CC#N (single isomer, unassigned) [Example 242a]
- IC50 (KRAS G12C): ≤ 100 nM
- IC50 [1]: ≤ 100 nM

Compound: CC#CC(=O)N1CC[C@H](n2nnc3c(N4CC(C)(N(C)C)C4)nc4c(F)c(-c5cccc(Cl)c5OC)c(C(F)(F)F)cc4c32)C[C@H]1CC#N (single isomer, unassigned) [Example 243b]
- IC50 (KRAS G12C): ≤ 100 nM
- IC50 [1]: ≤ 100 nM

Compound: CC#CC(=O)N1CC[C@H](n2nnc3c(N4CC(C)(N(C)C)C4)nc4c(F)c(-c5cccc(C)c5OC)c(C(F)(F)F)cc4c32)C[C@H]1CC#N (single isomer, unassigned) [Example 245a]
- IC50 (KRAS G12C): ≤ 100 nM
- IC50 [1]: ≤ 100 nM

Compound: C=CC(=O)N1CC[C@H](n2cnc3c(N4CC(N(C)C)C4)nc4c(F)c(-c5c(C)c(Cl)cc6[nH]ncc56)c(Cl)cc4c32)C[C@H]1CC#N (single isomer, unassigned) [Example 267a]
- IC50 (KRAS G12C): ≤ 100 nM
- IC50 [1]: ≤ 100 nM

Compound: CC#CC(=O)N1CC[C@H](n2nnc3c(OC[C@@H]4CCCN4C)nc4c(Cl)c(-c5ccc(F)c6cccnc56)c(Cl)cc4c32)C[C@H]1CC#N (single isomer, unassigned) [Example 270a]
- IC50 (KRAS G12C): ≤ 100 nM
- IC50 [1]: ≤ 100 nM

Compound: C=CC(=O)N1CC[C@H](n2nnc3c(N4CC(N(C)C)C4)nc4c(Cl)c(-c5ccc(F)c6cccnc56)c(Cl)cc4c32)C[C@H]1CC#N (single isomer, unassigned) [Example 271a]
- IC50 (KRAS G12C): ≤ 100 nM
- IC50 [1]: ≤ 100 nM
